# According to patent US10072161B2, “Polyamide nanoparticles and uses thereof” (Bar-Ilan University, priority 2014, dated 2018):
# Tests used:
# E. coli [1] = assay: Bacterial killing kinetics in the presence of antioxidants; assay type: cell-based, Escherichia coli; settings: 10 mM antioxidant, 1 h pre-incubation
# Experimental: (§1) Cultures of E. coli and S. aureus bacteria grown overnight were diluted in fresh twofold concentrated LB medium to obtain stock solutions with a final working concentration of 10^5 CFU/ml. […] Bacteria supplemented with distilled water or the various antioxidants served as negative controls. At various time points, 100 μl samples were taken from each tube and transferred into the first row wells of a 96-well plate containing 20 μl of 0.1 N thiosulfate. The latter was added to quench the remaining chlorine on the P(MAA-MBAA)-Cl NPs and NaOCl, thus terminating the sterilization process. Serial dilutions were carried out and the cells spotted onto LB agar plates, which were incubated at 37° C. for 20 h. Cell growth was monitored and determined by a viable cell count.
# S. aureus [2] = assay: as above; assay type: cell-based, Staphylococcus aureus; settings: 10 mM antioxidant, 1 h pre-incubation
# Experimental: as §1
# [3] = ESR spin trapping (DMPO) of ROS; settings: 10 mM antioxidant
# Experimental: ROS production was detected using the ESR spin trapping technique coupled with a spin trap 5,5-Dimethyl-pyrroline N-oxide (DMPO, Sigma, St. Louis, Mo.). Typically, the aqueous suspensions of NPs were added to DMPO (0.01 M), in the presence of equivalent volumes of either twofold concentrated LB medium, or each of its components (Tryptone, yeast extract, NaCl) or water. […] The solution was drawn into a 0.8 mm ID capillary quartz tube sealed at both ends with a plastic Critoseal (Thermo Fisher Scientific Inc), which was placed into a quartz tube that in turn was placed into the EPR rectangular cavity (ER 4122SHQ). The measurements were taken using a X-band Elexsys E500 EPR spectrometer (Bruker, Karlsruhe, Germany) using the following parameters: microwave power, 20 mW; scan width, 100 G; resolution, 1024; Gain, 60; sweep time, 60 s; # scans, 2; modulation frequency, 100 kHz; modulation amplitude, 1 G. In order to compare the radical intensity, the double integration (DI) of the spin adduct signal was calculated, using the Xepr 2.6b.58 acquisition version.
# [4] = test system: Escherichia coli (E. coli) C600; assay: Minimum inhibitory concentration (MIC) assay in LB, 96-well, OD595; assay type: cell-based; settings: 10^5 CFU/mL
# Experimental: (§2) In exemplary procedures, Escherichia coli (E. coli) C600, Staphylococcus aureus (S. aureus) FRF1169, and multi-drug resistant strains E. coli 5327752, Klebsiella pneumoniae 5363271, and Providencia stuartii 5327311 were grown overnight at 37° C. under agitation (250 rpm) in Luria Bertani (LB, Difco) growth medium.
# (§3) In exemplary procedures, the antimicrobial activity of the P(MAA-MBAA)-Cl nanoparticles was evaluated by determining the minimum inhibitory concentration (MIC) values for both E. coli and S. aureus. The MIC was defined as the lowest Cl concentration bound to the nanoparticles, or the NaOCl, at which no bacterial growth was visible following incubation with the respective bacteria. The stock solution of the P(MAA-MBAA)-Cl nanoparticles and NaOCl were each diluted in two-fold serial dilutions in a 96-well plate (Griener Bio-one) ranging from bound Cl concentrations of 10 to 0.08 mM (approximately corresponding to 0.8% P(MAA-MBAA)-Cl, w/v) in LB medium in a 96-well plate (Greiner Bio-one). Each well contained 10^5 colony-forming units (CFU)/mL of either E. coli or S. aureus, and bacteria were either treated with P(MAA-MBAA) nanoparticles or left untreated to serve as negative controls. The bacterial growth was monitored via absorbance measurements at OD595 utilizing a microplate reader (Synergy 2, BioTek instruments). All experiments were conducted in triplicate.
# [5] = test system: Staphylococcus aureus (S. aureus) FRF1169; assay: as above; assay type: cell-based; settings: 10^5 CFU/mL
# Experimental: as §2, §3
# E. coli [6] = assay: Bacterial killing / killing kinetics, viable cell count (CFU/mL); assay type: cell-based, Escherichia coli
# Experimental: as §2
# (§4) In exemplary procedures, overnight cultures of E. coli and S. aureus bacteria were each diluted in a fresh LB medium to obtain stock solutions with a working concentration of 10^5 CFU per mL. Next, E. coli and S. aureus bacteria were grown, […] with equivalent volumes of either NaOCl, P(MAA-MBAA) or P(MAA-MBAA)-Cl nanoparticles (0.2%, 0.75%, and 1% w/v) under continuous agitation (250 rpm). At various time points, 100 μL samples were taken from each tube and transferred into the wells of the first row in a 96-well plate that contained 20 μL of 0.1 N sodium thiosulfate. The latter was added to quench the remaining Cl on the P(MAA-MBAA)-Cl nanoparticles, thus halting the reaction. Serial dilutions were carried out, and the cells were spotted onto LB agar plates, followed by incubation at 37° C. for 20 hours. Cell growth was monitored and determined by viable cell count and expressed as CFU/mL.
# (§5) Cultures of E. coli and S. aureus bacteria grown overnight were diluted in fresh twofold concentrated LB medium to obtain stock solutions with a final working concentration of 10^5 CFU/ml. Then, E. coli and S. aureus bacteria were grown with either P(MAA-MBAA)-Cl NPs or NaOCl under continuous agitation (250 rpm). Bacteria grown with distilled water or P(MAA-MBAA) NPs served as negative controls. At various time points, 100 μl samples were taken from each tube and transferred into the first row wells of a 96-well plate containing 20 μl of 0.1 N thiosulfate. The latter was added to quench the remaining chlorine on the P(MAA-MBAA)-Cl NPs and NaOCl, thus terminating the sterilization process. […] Cell growth was monitored and determined by a viable cell count.
# S. aureus [7] = assay: as above; assay type: cell-based, Staphylococcus aureus
# Experimental: as §2, §4, §5
# E. coli [8] = assay: Consecutive bacterial loading cycles (hourly, 8 cycles); assay type: cell-based, Escherichia coli
# Experimental: (§6) The cell density of E. coli and S. aureus grown overnight was normalized to 2*10^5 cells per milliliter in a twofold concentrated LB medium; then the bacteria were treated for 1 h at 37° C. under agitation (250 rpm) with equivalent volumes of either NaOCl or P(MAA-MBAA)-Cl NPs. Bacteria shaken with water served as a negative control. After 1 h of incubation, aliquots were collected and diluted serially tenfold before spotting onto LB agar plates. After an overnight incubation at 37° C. the colony forming units (CFU) were counted and used to determine cell survival. Immediately after each aliquot was removed, newly prepared bacteria were added for another hour to each of the tubes to achieve a final concentration of 10^5 CFU/ml.
# S. aureus [9] = assay: as above; assay type: cell-based, Staphylococcus aureus
# Experimental: as §6
# E. coli [10] = assay: Stability in organic rich media (LB pre-incubation, then bacterial loading); assay type: cell-based, Escherichia coli
# Experimental: (§7) 1 ml of either DDW, NaOCl or P(MAA-MBAA)-Cl NPs was mixed with 1 ml of twofold concentrated LB medium and incubated for 3 h, 5 h or 24 h. Then, E. coli or S. aureus were added to each of the solutions, reaching a final concentration of 10^5 CFU/ml and the mixture agitated for either 3 h or 24 h. At the indicated time points, samples were taken for cell viability determination and the solutions were reloaded with freshly prepared bacteria. The experiment was continued until the reagents were no longer capable of evincing toxic effects on the tested bacteria.
# S. aureus [11] = assay: as above; assay type: cell-based, Staphylococcus aureus
# Experimental: as §7
# [12] = Kinetics of oxidative chlorine release in LB medium (NaI quenching, 292/350 nm); assay type: physicochemical; settings: for % chlorinated: 1 day in LB
# Experimental: (§8) Equal volumes of NaOCl or P(MAA-MBAA)-Cl NPs were incubated with equivalent volumes of twofold concentrated LB medium. The precise concentration of the oxidative chlorine found on the two reagents was determined at different time intervals via quenching with sodium iodide followed by spectrophotometer (Amersham Bioschiences) measurements at wavelengths of 292 nm and 350 nm, as previously described.
# as §8, with “nm.” for “nm, as previously described.”
# [13] = 10^5 CFU/ml in LB, NPs versus NaOCl
# [14] = pre-incubated for 1 week with LB
smiles,measurement,setting,value
"O=C1O[C@H]([C@@H](O)CO)C(O)=C1O [AA, Ascorbic acid]",effect of antioxidant pre-incubation on killing by the chlorinated NPs,E. coli [1],abolished the killing properties of the NPs
same,effect of antioxidant pre-incubation on killing by the chlorinated NPs,S. aureus [2],abolished the killing properties of the NPs
"CC(=O)N[C@@H](CS)C(=O)O [NAC, N-acetyl cysteine]",effect on formation of DMPO-OH by P(MAA-MBAA)-Cl NPs with LB,[3],completely abrogated
same,effect of antioxidant pre-incubation on killing by the chlorinated NPs,E. coli [1],abolished the killing properties of the NPs
same,effect of antioxidant pre-incubation on killing by the chlorinated NPs,S. aureus [2],abolished the killing properties of the NPs
"OCl [NaOCl, sodium hypochlorite]",minimum inhibitory concentration (MIC),[4],5.6 mM oxidative Cl
same,minimum inhibitory concentration (MIC),[5],5.6 mM oxidative Cl
same,bacterial killing,E. coli [6]; 8 mM oxidative chlorine,Total kill
same,bacterial killing,E. coli [6]; 11 mM oxidative chlorine,Total kill
same,time to eradication of bacteria,E. coli [6]; [13],≤ 2 min
same,bacterial killing,S. aureus [7]; 8 mM oxidative chlorine,Total kill
same,bacterial killing,S. aureus [7]; 11 mM oxidative chlorine,Total kill
same,time to eradication of bacteria,S. aureus [7]; [13],≤ 2 min
same,bacterial viability after overnight incubation following the eighth loading cycle,E. coli [8],no viable E. coli bacteria
same,loading cycle from which no longer able to promote bacterial killing,E. coli [8],4 cycle
same,bacterial viability after overnight incubation following the eighth loading cycle,S. aureus [9],able to overcome the growth inhibitory affect
same,loading cycle from which no longer able to promote bacterial killing,S. aureus [9],2 cycle
same,effect of pre-incubation with LB on bactericidal activity,E. coli [10]; 3 h pre-incubation,had no impact on their bactericidal activity
same,effect of pre-incubation with LB on bactericidal activity,E. coli [10]; 5 h pre-incubation,growth inhibition
same,time to complete killing,E. coli [10]; 5 h pre-incubation with LB,24 h
same,reduction of bacteria viability,"E. coli [10]; 5 h pre-incubation with LB, 3 h time point",~4 logs
same,effect of pre-incubation with LB on bactericidal activity,E. coli [10]; 24 h pre-incubation,destroyed its antibacterial activity
same,concentration required to kill bacteria,E. coli [10]; [14],0.36 M
same,killing at 0.18 M,E. coli [10]; [14],ineffective
same,effect of pre-incubation with LB on bactericidal activity,S. aureus [11]; 3 h pre-incubation,did compromise its bactericidal activity
same,time to complete killing,S. aureus [11]; 3 h pre-incubation with LB,24 h
same,effect of pre-incubation with LB on bactericidal activity,S. aureus [11]; 5 h pre-incubation,growth arrest
same,effect of pre-incubation with LB on bactericidal activity,S. aureus [11]; 24 h pre-incubation,destroyed its antibacterial activity
same,concentration required to kill bacteria,S. aureus [11]; [14],0.36 M
same,killing at 0.18 M,S. aureus [11]; [14],ineffective
same,NaOCl molecules sequestered by organic substances,[12]; 10 minutes of incubation in LB,~50%
same,% chlorinated,[12]; measured at 292 nm,0.9%
same,% chlorinated,[12]; measured at 350 nm,0.5%
